Measurements reported in patent US20070203057A1, “COMPOUNDS AND METHODS FOR MODULATING ADHESION MOLECULE FUNCTION” (ADHEREX TECHNOLOGIES, INC., priority 1998, published 2007).

Key:
N-cadherin [1] = assay: Neurite outgrowth of rat neurons on monolayers of 3T3 cells expressing N-cadherin; assay type: cell-based; details: for Percent Inhibition of Neurite Outgrowth on 3T3 Cells Expressing N-cadherin: rat neurons, 20 hours
Method: (§1) Neurons were cultured on monolayers of 3T3 cells transfected with cDNA encoding N-cadherin essentially as described by Doherty and Walsh, Curr. Op. Neurobiol. 4:49-55, 1994; Williams et al., Neuron 13:583-594, 1994; Hall et al., Cell Adhesion and Commun. 3:441-450, 1996; Doherty and Walsh, Mol. Cell. Neurosci. 8:99-111, 1994; Safell et al., Neuron 18:231-242, 1997. Briefly, monolayers of control 3T3 fibroblasts and 3T3 fibroblasts that express N-cadherin were established by overnight culture of 80,000 cells in individual wells of an 8-chamber well tissue culture slide. 3000 cerebellar neurons isolated from post-natal day 3 mouse brains were cultured for 18 hours on the various monolayers in control media (SATO/2% FCS), or media supplemented with various concentrations of the test peptide to be evaluated. The cultures were then fixed and stained for GAP43 which specifically binds to the neurons and their neurites. The length of the longest neurite on each GAP43 positive neuron was then measured by computer assisted morphometry. For each data point, measurements were made from 100-160 neurons, and the given values show the mean +/− the standard error of the mean.
(§2) The ability of different modulating agents to inhibit neurite outgrowth was also evaluated. […] The peptides were tested at different concentrations. Rat neurons were grown for 20 hours on monolayers of either 3T3 cells, or 3T3 cells expressing N-cadherin. The cultures were then fixed, and the mean neurite length was determined by making measurements on at least 150 neurons for each treatment. The results are presented as the percentage inhibition of neurite outgrowth over 3T3 cells expressing N-cadherin.
Similar experiments, illustrated in Table III, were performed to evaluate the effect of various cyclic peptide modulating agents derived from EC1 of human N-cadherin on neurite outgrowth.
(§3) To further evaluate the specificity of these peptide modulating agents, inhibition of neurite outgrowth was assessed, at 100 μg/ml, on monolayers of 3T3 cells transfected with various molecules responsible for neurite outgrowth. The results, shown in Table IV, illustrate a high level of specificity for N-cadherin mediated neurite outgrowth.
Further experiments were performed as described above to assess the activity of peptide modulating agents derived from EC4 of human N-cadherin.

N-cadherin [2] = assay: Neurite outgrowth of mouse cerebellar neurons on monolayers of 3T3 cells expressing N-cadherin; assay type: cell-based
Source text: Within a representative neurite outgrowth assay, neurons may be cultured on a monolayer of cells (e.g., 3T3 fibroblasts) that express N-cadherin. […] For example, neurons may be cultured on monolayers of 3T3 cells transfected with cDNA encoding N-cadherin essentially as described by Doherty and Walsh, Curr. Op. Neurobiol. 4:49-55, 1994; Williams et al., Neuron 13:583-594, 1994; Hall et al., Cell Adhesion and Commun. 3:441-450, 1996; Doherty and Walsh, Mol. Cell. Neurosci. 8:99-111, 1994; and Safell et al., Neuron 18:231-242, 1997. Briefly, monolayers of control 3T3 fibroblasts and 3T3 fibroblasts that express N-cadherin may be established by overnight culture of 80,000 cells in individual wells of an 8-chamber well tissue culture slide. […] The length of the longest neurite on each GAP43 positive neuron may be measured by computer assisted morphometry.
Neurons were cultured on monolayers of 3T3 cells transfected with cDNA encoding N-cadherin essentially as described by Doherty and Walsh, Curr. […] 3000 cerebellar neurons isolated from post-natal day 3 mouse brains were cultured for 18 hours on the various monolayers in control media (SATO/2% FCS), or media supplemented with various concentrations of the test peptide to be evaluated. […] The length of the longest neurite on each GAP43 positive neuron was then measured by computer assisted morphometry. […]

NCAM [3] = biological target: T1, NCAM (Homo sapiens, UniProt P13591); assay: Neurite outgrowth of mouse cerebellar neurons on monolayers of 3T3 cells expressing NCAM; assay type: cell-based; details: 250 μg/ml; FIG. 6
T1 construct: expressed in transfected cells; host or cells: 3T3 cells
Method: as §1, with “For each data point, measurements were made from 100-160 neurons, and the given values show the mean +/− the standard error of the mean.” left out
(§4) The mean neurite length was further measured for neurons cultured on monolayers of 3T3 cells, 3T3 cells expressing N-cadherin, 3T3 cells expressing NCAM, and 3T3 cells expressing L1 in media containing the linear peptide H-WLKIDPVNGQI-OH (SEQ ID NO:13; designated N-CAD-CHD2) at a concentration of 250 μg/ml. […]

L1 [4] = biological target: T2, L1 (Homo sapiens, UniProt P32004); assay: Neurite outgrowth of mouse cerebellar neurons on monolayers of 3T3 cells expressing L1; assay type: cell-based; details: 250 μg/ml; FIG. 6
T2 construct: expressed in transfected cells; host or cells: 3T3 cells
Method: as §1, with “For each data point, measurements were made from 100-160 neurons, and the given values show the mean +/− the standard error of the mean.” left out
as §4

N-cadherin-Fc chimera = assay: Binding of peptide to flow cell coated with N-cadherin-Fc chimera (human IgG1 control subtracted); details: 250, 500 or 1000 μg/ml, FIG. 7
Source text: As noted above, native HAV-BM sequences, as well as analogues and mimetics thereof, bind to a classical cadherin, preferably within or near an HAV sequence, and modulate a cadherin-mediated response. The ability to bind to a cadherin sequence may generally be evaluated using any binding assay known to those of ordinary skill in the art. For example, a Pharmacia Biosensor machine may be used, as discussed in Jonsson et al., Biotechniques 11:520-27, 1991. A specific example of the technology that measures the interaction of peptides with molecules can be found in Williams et al., J. Biol. Chem. 272:8539-8545, 1997. Real-time BIA (Biomolecular Interaction Analysis) uses the optical phenomenon surface plasmon resonance to monitor biomolecular interactions. […] Binding to the chip is measured in real-time in arbitrary units of resonance (RU). […]
To determine binding, test analytes (e.g., cadherin peptides, such as HAV-containing peptides) may be placed in running buffer and passed simultaneously over test and control flow cells. […] Specific binding to the derivatized sensor chips may be determined automatically by the system by subtraction of […] flow cell responses. […]

NCAM [5] = biological target: T1, NCAM; assay: Neurite outgrowth over 3T3 cells transfected with NCAM; assay type: cell-based, rat; details: 100 μg/ml
Method: as §2, §3

L1 [6] = biological target: T2, L1; assay: Neurite outgrowth over 3T3 cells transfected with L1; assay type: cell-based, rat; details: 100 μg/ml
Method: as §2, §3

FGFR = assay: Neurite outgrowth over 3T3 cells transfected with FGFR; assay type: cell-based, rat; details: 100 μg/ml
Method: as §2, §3

[7] = tested on: human ovarian cancer cells (SKOV3); assay: Disruption of tumor cell adhesion in SKOV3 monolayer cultures; assay type: cell-based; details: 1 mg/mL, 24 hours; FIG. 8B
Source text: Within certain cell adhesion assays, the addition of a modulating agent to cells that express a cadherin results in disruption of cell adhesion. A “cadherin-expressing cell,” as used herein, may be any type of cell that expresses at least one cadherin on the cell surface at a detectable level, using standard techniques such as immunocytochemical protocols (e.g., Blaschuk and Farookhi, Dev. Biol. 136:564-567, 1989). Cadherin-expressing cells include endothelial, epithelial and/or cancer cells. For example, such cells may be plated under standard conditions that, in the absence of modulating agent, permit cell adhesion. In the presence of modulating agent (e.g., 500 μg/mL), disruption of cell adhesion may be determined visually within 24 hours, by observing retraction of the cells from one another.
Monolayer cultures of human ovarian cancer cells (SKOV3) were grown in the presence and absence of the peptide N-Ac-INPISGQ-NH2 (SEQ ID NO:22).

[8] = 11 μg/ml, EC4-derived peptides, Table V
[9] = 3 μg/ml, cyclic peptides, Table III
[10] = 10 μg/ml, cyclic peptides, Table III
[11] = 33 μg/ml, cyclic peptides, Table III
[12] = 100 μg/ml, cyclic peptides, Table III

T2 sequence (P32004 20-1257): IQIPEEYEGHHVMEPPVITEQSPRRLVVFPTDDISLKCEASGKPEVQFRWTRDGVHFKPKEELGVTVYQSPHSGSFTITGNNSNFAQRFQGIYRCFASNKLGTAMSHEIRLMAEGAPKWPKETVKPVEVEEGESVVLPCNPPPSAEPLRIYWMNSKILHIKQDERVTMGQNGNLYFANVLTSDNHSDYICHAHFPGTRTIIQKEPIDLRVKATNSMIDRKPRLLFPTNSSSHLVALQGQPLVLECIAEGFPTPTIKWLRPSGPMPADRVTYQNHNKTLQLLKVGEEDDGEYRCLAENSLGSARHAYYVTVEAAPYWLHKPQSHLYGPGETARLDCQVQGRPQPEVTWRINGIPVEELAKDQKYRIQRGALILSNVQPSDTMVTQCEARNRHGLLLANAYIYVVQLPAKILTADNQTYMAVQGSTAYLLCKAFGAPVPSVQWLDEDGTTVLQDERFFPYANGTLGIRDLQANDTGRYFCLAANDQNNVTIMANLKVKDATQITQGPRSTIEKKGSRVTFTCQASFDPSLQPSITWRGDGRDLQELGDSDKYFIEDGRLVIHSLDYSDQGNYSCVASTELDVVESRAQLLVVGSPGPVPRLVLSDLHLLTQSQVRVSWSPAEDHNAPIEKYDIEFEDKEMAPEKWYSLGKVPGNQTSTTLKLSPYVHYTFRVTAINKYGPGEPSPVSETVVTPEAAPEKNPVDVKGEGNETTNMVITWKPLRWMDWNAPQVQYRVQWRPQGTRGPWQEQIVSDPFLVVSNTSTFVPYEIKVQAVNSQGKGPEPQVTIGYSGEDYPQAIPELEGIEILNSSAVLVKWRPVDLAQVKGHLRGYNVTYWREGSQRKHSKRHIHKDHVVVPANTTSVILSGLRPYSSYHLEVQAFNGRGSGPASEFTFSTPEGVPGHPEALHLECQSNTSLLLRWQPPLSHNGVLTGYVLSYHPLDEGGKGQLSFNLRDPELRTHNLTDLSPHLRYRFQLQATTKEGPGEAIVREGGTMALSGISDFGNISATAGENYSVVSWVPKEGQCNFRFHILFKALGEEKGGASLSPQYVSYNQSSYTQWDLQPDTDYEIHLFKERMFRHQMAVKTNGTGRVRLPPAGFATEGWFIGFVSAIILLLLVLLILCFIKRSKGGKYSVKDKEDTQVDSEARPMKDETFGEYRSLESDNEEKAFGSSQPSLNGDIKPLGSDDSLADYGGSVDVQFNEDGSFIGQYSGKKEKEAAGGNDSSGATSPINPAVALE
T1 sequence (P13591 20-858, species assumed): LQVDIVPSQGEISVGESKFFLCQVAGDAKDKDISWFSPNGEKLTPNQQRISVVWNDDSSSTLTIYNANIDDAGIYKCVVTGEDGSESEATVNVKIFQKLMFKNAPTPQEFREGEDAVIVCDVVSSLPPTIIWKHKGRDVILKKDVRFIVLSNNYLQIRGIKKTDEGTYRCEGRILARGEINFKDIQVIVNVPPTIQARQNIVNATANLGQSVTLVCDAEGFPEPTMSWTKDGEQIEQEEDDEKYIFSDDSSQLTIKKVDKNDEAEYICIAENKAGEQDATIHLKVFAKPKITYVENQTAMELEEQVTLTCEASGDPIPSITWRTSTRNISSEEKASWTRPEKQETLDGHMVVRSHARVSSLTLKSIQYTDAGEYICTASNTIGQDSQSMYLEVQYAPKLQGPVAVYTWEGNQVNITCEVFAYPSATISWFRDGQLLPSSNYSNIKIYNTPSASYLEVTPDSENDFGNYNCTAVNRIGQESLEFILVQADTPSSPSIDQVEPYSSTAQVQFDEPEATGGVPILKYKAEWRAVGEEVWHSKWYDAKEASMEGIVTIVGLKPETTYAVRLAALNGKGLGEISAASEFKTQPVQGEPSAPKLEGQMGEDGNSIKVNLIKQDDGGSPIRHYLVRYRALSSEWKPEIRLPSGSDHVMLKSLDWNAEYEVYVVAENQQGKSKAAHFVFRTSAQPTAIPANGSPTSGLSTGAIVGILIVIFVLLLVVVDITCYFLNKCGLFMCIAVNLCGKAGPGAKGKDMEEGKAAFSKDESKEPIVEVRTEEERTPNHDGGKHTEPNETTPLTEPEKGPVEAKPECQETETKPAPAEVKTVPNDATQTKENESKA

N-Ac-CIDPVNC-NH2 (also: cyclic, type of ring not given here) [cyclic peptide comprising IDPVN, from EC4 of human N-cadherin]
Percent Inhibition of Neurite Outgrowth (N-cadherin [1]; [8]): 15.4 ± 8.9%

N-Ac-INAISGQ-NH2 [control peptide with change in a specific amino acid]
Percent Inhibition of Neurite Outgrowth on 3T3 Cells Expressing N-cadherin (N-cadherin [1]; 33 μg/ml): 12.3 ± 6.2%

H-WLKIDPVNGQI-OH
Inhibition of neurite outgrowth on 3T3 cells expressing N-cadherin (N-cadherin [2]; 250 μg/ml, FIG. 6): inhibited
Inhibition of the N-cadherin neurite outgrowth response (N-cadherin [2]; 125 and 250 μg/ml, FIG. 5): fully inhibited
Inhibition of neurite outgrowth on 3T3 cells expressing NCAM (NCAM [3]): Only neurite outgrowth on 3T3 cells expressing N-cadherin was inhibited
Inhibition of neurite outgrowth on 3T3 cells expressing L1 (L1 [4]): Only neurite outgrowth on 3T3 cells expressing N-cadherin was inhibited
Binding to N-cadherin-Fc chimera coated flow cell (N-cadherin-Fc chimera): association of the peptide to the flow cell coated with the N-cadherin Fc chimera

Ac-CINPIC-NH2 (cysteine pairing not given here)
Percent Inhibition of Neurite Outgrowth (N-cadherin [1]; [9]): 7.5 ± 3.2%
Percent Inhibition of Neurite Outgrowth (N-cadherin [1]; [10]): 31.5 ± 7.5%
Percent Inhibition of Neurite Outgrowth (N-cadherin [1]; [11]): 56.2 ± 6.9%
Percent Inhibition of Neurite Outgrowth over 3T3 Cells Expressing N-cadherin (N-cadherin [1]; 100 μg/ml, Table IV): 94.5 ± 10.5%
Percent Inhibition of Neurite Outgrowth (N-cadherin [1]; [12]): 94.5 ± 10.5%
EC50 (N-cadherin [1]; cyclic peptides, Table III): 38.2 µM
Percent Inhibition of Neurite Outgrowth over 3T3 Cells Expressing NCAM (NCAM [5]): 13.7 ± 7.1%
Percent Inhibition of Neurite Outgrowth over 3T3 Cells Expressing L1 (L1 [6]): 7.8 ± 3.8%

Ac-CINPISC-NH2 (cysteine pairing not given here)
Percent Inhibition of Neurite Outgrowth (N-cadherin [1]; [10]): 21.8 ± 1.2%
Percent Inhibition of Neurite Outgrowth (N-cadherin [1]; [11]): 39.5 ± 4.3%
Percent Inhibition of Neurite Outgrowth (N-cadherin [1]; [12]): 73.4 ± 2.2%
EC50 (N-cadherin [1]; cyclic peptides, Table III): 38.1 µM

N-Ac-INPISGQ-NH2 [linear peptide derived from EC1 of human N-cadherin]
Percent Inhibition of Neurite Outgrowth on 3T3 Cells Expressing N-cadherin (N-cadherin [1]; 3 μg/ml): 19.5 ± 4.3%
Percent Inhibition of Neurite Outgrowth on 3T3 Cells Expressing N-cadherin (N-cadherin [1]; 10 μg/ml): 47.8 ± 4.1%
Percent Inhibition of Neurite Outgrowth on 3T3 Cells Expressing N-cadherin (N-cadherin [1]; 33 μg/ml): 73.0 ± 4.6%
Percent Inhibition of Neurite Outgrowth over 3T3 Cells Expressing NCAM (NCAM [5]): 6.2 ± 3.0%
Percent Inhibition of Neurite Outgrowth over 3T3 Cells Expressing FGFR (FGFR): 1.9 ± 5.1%
Percent Inhibition of Neurite Outgrowth over 3T3 Cells Expressing L1 (L1 [6]): 0.3 ± 1.8%
Disruption of SKOV3 cell adhesion (morphology) [7]: retract from one another and round-up

N-Ac-IDPVNGQ-NH2 [peptide derived from EC4 of human N-cadherin]
Percent Inhibition of Neurite Outgrowth (N-cadherin [1]; [8]): 0.6 ± 10.0%

N-Ac-CINPC-NH2
Percent Inhibition of Neurite Outgrowth (N-cadherin [1]; [9]): 17.4 ± 5.7%
Percent Inhibition of Neurite Outgrowth (N-cadherin [1]; [10]): 51.9 ± 2.5%
Percent Inhibition of Neurite Outgrowth (N-cadherin [1]; [11]): 71.0 ± 6.5%
Percent Inhibition of Neurite Outgrowth (N-cadherin [1]; [12]): 98.1 ± 8.2%
EC50 (N-cadherin [1]; cyclic peptides, Table III): 14.3 µM
